In patent US20150272939A1, “Identification of Small Molecule Inhibitors of Jumonji AT-Rich Interactive Domain 1A (JARID1A) and 1B (JARID1B) Histone Demethylase” (Yale University, priority 2012, published 2015):
Structures can show the parent of a compound that is named as a salt. Where two headings read alike, the source gives them in different places.

Legend:
[1] = biological target: T1, JARID1B (Homo sapiens, UniProt Q9UGL1); assay: FLAG-JARID1B histone demethylase assay with AlphaScreen detection (HTS and dose response); format: biochemical; conditions: for inhibition at 20 µM / Inhibitory effect (percent): high-throughput screen, compound 20 μM; for inhibition at 20 µM: read-out: Inhibitory effect (percent); for Validation result of HTS active: effect of the compound in the JARID1B AlphaScreen demethylase assay / Assay Signal (percent): validation of HTS actives; for Validation result of HTS active: effect of the compound in the JARID1B AlphaScreen demethylase assay: total signal before subtraction of artifact signal; for Assay − Artifact Signal (percent): assay signal minus artifact signal; for Assay Signal (percent): effect of compound in JARID1B AlphaScreen assay;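 as to Assay Signal (percent): compound tested at 20 µM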;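 as to Assay − Artifact Signal (percent): compound tested at 20 µM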;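 as to all read-outs here: FLAG-tagged JARID1B at 4 nM acting on a biotinylated H3K4me3 peptide, demethylation read by AlphaScreen luminescence, with hits checked against bio-H3K4me2 without enzyme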
T1 construct: The FLAG tagged full length JARID1B enzyme was expressed in Sf21 insect cells using FLAG-JARID1B baculoviruses; FLAG (N); made in house; host or cells: Sf21 insect cells (baculovirus)
T1 sequence (Q9UGL1 whole entry): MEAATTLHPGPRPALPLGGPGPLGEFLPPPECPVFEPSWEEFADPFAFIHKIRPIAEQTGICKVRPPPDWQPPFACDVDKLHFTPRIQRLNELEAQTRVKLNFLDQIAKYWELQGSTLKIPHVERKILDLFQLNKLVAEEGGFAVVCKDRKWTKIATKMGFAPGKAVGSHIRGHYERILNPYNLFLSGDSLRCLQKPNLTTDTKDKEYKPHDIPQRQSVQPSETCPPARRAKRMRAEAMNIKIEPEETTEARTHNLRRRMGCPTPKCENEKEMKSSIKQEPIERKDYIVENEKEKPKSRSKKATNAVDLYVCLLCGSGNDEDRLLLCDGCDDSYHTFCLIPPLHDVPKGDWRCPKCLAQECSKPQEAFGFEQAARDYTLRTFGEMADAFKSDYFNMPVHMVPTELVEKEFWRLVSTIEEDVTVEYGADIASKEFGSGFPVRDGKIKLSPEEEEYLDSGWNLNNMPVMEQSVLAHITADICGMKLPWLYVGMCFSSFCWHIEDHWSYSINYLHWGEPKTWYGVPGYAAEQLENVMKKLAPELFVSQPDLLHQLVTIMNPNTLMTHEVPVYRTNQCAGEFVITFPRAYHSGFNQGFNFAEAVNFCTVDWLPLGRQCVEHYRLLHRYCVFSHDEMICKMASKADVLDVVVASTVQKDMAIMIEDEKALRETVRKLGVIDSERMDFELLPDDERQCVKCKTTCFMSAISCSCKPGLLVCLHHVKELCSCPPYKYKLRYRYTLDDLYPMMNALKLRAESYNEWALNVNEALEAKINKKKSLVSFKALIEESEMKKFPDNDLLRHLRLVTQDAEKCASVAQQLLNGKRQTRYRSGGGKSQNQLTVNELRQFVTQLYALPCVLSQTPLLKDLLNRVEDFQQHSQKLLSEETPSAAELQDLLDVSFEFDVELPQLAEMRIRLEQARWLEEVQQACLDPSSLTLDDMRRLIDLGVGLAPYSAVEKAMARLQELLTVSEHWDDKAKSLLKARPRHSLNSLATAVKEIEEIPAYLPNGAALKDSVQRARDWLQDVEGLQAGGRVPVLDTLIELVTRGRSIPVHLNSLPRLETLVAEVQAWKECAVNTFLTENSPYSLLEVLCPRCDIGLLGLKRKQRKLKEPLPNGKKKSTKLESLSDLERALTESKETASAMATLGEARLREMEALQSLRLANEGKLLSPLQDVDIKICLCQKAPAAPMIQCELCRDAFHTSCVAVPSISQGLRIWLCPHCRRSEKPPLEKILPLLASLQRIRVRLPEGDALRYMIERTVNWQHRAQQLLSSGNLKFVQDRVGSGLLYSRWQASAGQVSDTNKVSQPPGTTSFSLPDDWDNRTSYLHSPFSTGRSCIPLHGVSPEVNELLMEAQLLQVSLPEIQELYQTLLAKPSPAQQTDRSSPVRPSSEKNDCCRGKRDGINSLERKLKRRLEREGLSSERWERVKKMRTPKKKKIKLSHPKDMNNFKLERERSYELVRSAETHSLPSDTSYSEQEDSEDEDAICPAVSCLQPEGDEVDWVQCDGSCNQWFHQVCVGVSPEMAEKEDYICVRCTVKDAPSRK

[2] = AlphaScreen counterscreen against bio-H3K4me2 peptide in the absence of enzyme (artifact signal); conditions: for Artifact signal: effect of the compound when it is incubated with bio-H3K4me2 peptide: counterscreen, no enzyme; for Artifact Signal (percent): effect of the compound when incubated with bio-H3K4me2 peptide (counterscreen, no enzyme);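 as to all read-outs here: counterscreen run without enzyme against bio-H3K4me2 peptide to remove false positive hits from the JARID1 demethylase AlphaScreen screen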
[3] = standard demethylase conditions (10 μM α-KG, 50 μM Fe (II))
[4] = IDs marked *: additional hits under reaction condition with 1 mM α-KG

Row | SMILES | inhibition at 20 µM [1, 3] | Validation result of HTS active: effect of the compound in the JARID1B AlphaScreen demethylase assay [1] | Artifact signal: effect of the compound when it is incubated with bio-H3K4me2 peptide [2] | Assay − Artifact Signal (percent) [1] | Assay Signal (percent) [1] | Artifact Signal (percent) [2] | Inhibitory effect (percent) [1, 3] | inhibition at 20 µM [1, 4]
1 | CN(C)CCCN1c2ccccc2Sc2ccc(C(F)(F)F)cc21 [YU034370, TRIFLUPROMAZINE HYDROCHLORIDE, reference compound] | 66% | 4.23 | −2.95 | – | – | – | – | –
2 | Cc1cc(N)c2ccccc2[n+]1CCCCCCCCCC[n+]1c(C)cc(N)c2ccccc21 [YU034372, DEQUALINIUM CHLORIDE, reference compound] | 42.1% | – | – | 32.23% | 32.80% | 0.57% | – | –
3 | CCCCCCCCCCCCCCCC[N+](C)(C)C [YU034377, CETRIMONIUM BROMIDE, reference compound] | 94.2% | −6.81 | −6.13 | – | – | – | – | –
4 | CN(C)C(=S)SSC(=S)N(C)C [YU034426, THIRAM, reference compound] | 64.2% | – | – | 59.23% | 66.73% | 7.49% | – | –
5 | O=[N+]([O-])c1cc(O)c(O)c([N+](=O)[O-])c1 [YU034463, 3,5-DINITROCATECHOL, reference compound] | – | – | – | 27.05% | 38.78% | 11.72% | 49.87% | –
6 | CCC(=O)O[C@]1(C(=O)CCl)[C@@H](C)C[C@H]2[C@@H]3CCC4=CC(=O)C=C[C@]4(C)[C@@]3(F)[C@@H](O)C[C@@]21C [YU034506, CLOBETASOL PROPIONATE, reference compound] | 98.9% | 5.62 | −1.34 | – | – | – | – | –
7 | NC(=O)c1ncn([C@@H]2O[C@H](CO)[C@@H](O)[C@H]2O)n1 [YU034518, RIBAVIRIN, reference compound] | 79.7% | – | – | 23.17% | 17.20% | −5.97% | – | –
8 | N.N.[Cl][Pt][Cl] [YU034538, CISPLATIN, reference compound] | – | – | – | 40.64% | 49.17% | 8.53% | 40.06% | –
9 | NNC(=O)c1ccncc1.Nc1ccc(C(=O)O)c(O)c1 [YU034557, PASINIAZID, reference compound] | – | – | – | 42.63% | 44.38% | 1.76% | 46.37% | –
10 | CC(=O)C(C)O[Si](C(C)C)(C(C)C)C(C)C (stereo not drawn) [YU035082] | – | – | – | 15.58% | 22.36% | 6.78% | – | 95.8%
11 | CNC(C(=O)N(C)OC)C(C)C (stereo not drawn) [YU035100] | 88% | – | – | 11.75% | 13.14% | 1.39% | – | –
12 | C=CCO[C@H]1[C@H](O)[C@H](OCC=C)[C@H](O)[C@@H](OCC=C)[C@@H]1O [YU035165] | 49.5% | – | – | 13.07% | 15.19% | 2.11% | – | –
13 | CCN(CC)C(=S)SSC(=S)N(CC)CC [YU035331, reference compound] | – | – | – | 40.15% | 36.77% | −3.39% | – | 40.5%
14 | C=CC1=C(C(=O)O)N2C(=O)[C@@H](NC(=O)/C(=N\OCC(=O)O)c3csc(N)n3)[C@H]2SC1 [YU039791, CEFIXIME TRIHYDRATE, reference compound] | 105% | 104.49 | 96.65 | – | – | – | – | –
15 | O=C(O[C@@H]1Cc2c(O)cc(O)cc2O[C@@H]1c1cc(O)c(O)c(O)c1)c1cc(O)c(O)c(O)c1 [YU040338, Epigallocatechin gallate, reference compound] | 100% | – | – | 15.48% | 96.04% | 80.56% | – | –
16 | Cc1cc(-c2ccc(NC(=O)CCC(=O)O)c(C)c2)ccc1NC(=O)CCC(=O)O [YU104987] | 55.2% | 7.41 | 3.17 | – | – | – | – | –
17 | O=C(CCCCCCC(=O)N(c1ccccc1)c1ccccc1)N(c1ccccc1)c1ccccc1 [YU105079] | 68.9% | 44.39 | 43.24 | – | – | – | – | –
18 | Cc1ccc(C)c(CN2CCN(Cc3ccccc3)CC2)c1 [YU105182] | 35.3% | 3.14 | −1.74 | – | – | – | – | –
19 | Clc1cccc(N2CCN(Cc3ccc4ccccc4c3)CC2)c1 [YU105195] | 38.9% | 8.75 | 5.28 | – | – | – | – | –
20 | Cc1ccc([N+](=O)[O-])cc1N(CC(=O)Nc1ccc(Cl)c(C(F)(F)F)c1)S(C)(=O)=O [YU121632] | 59.2% | 2.95 | −1.84 | – | – | – | – | –

Row | SMILES | inhibition at 20 µM [1, 3] | Validation result of HTS active: effect of the compound in the JARID1B AlphaScreen demethylase assay [1] | Artifact signal: effect of the compound when it is incubated with bio-H3K4me2 peptide [2] | Assay − Artifact Signal (percent) [1] | Assay Signal (percent) [1] | Artifact Signal (percent) [2] | Inhibitory effect (percent) [1, 3] | inhibition at 20 µM [1, 4]
21 | c1cc(CNc2ccc(N3CCOCC3)cc2)ccn1 [YU129874] | 74.5% | – | – | 67.88% | 72.06% | 4.18% | – | –
22 | CC(=O)NNC(=O)c1ccncc1 [YU129955] | 88.7% | – | – | 96.89% | 92.06% | −4.84% | – | –
23 | OC1CCN(C(=S)NC2CC2)CC1 [YU144896] | 90.6% | −9.38 | −14.49 | – | – | – | – | –
24 | CCn1c(S)nnc1-c1ccncc1 [YU144949] | 38.8% | – | – | 43.88% | 40.70% | −3.18% | – | –
25 | CCC(=O)c1c(O)n(C)c(=O)n(C)c1=O [YU145029] | 61.6% | – | – | 34.42% | 34.53% | 0.11% | – | –
26 | CCOc1c(O)ccc(C=O)c1[N+](=O)[O-] [YU145037] | 66.1% | −4.02 | −1.09 | – | – | – | – | –
27 | O=C1NC(=O)C(c2ccc(Cl)cc2)N1 (stereo not drawn) [YU145089] | 78.3% | 4.23 | −1.01 | – | – | – | – | –
28 | CSc1nc2cc(F)c(F)cc2n1C [YU145132] | 91.5% | −6.93 | −7.06 | – | – | – | – | –
29 | CC(NC(=O)c1ccco1)c1ccncc1 (stereo not drawn) [YU145239] | 42.4% | 7.68 | 0.21 | – | – | – | – | –
30 | Cc1ccc(CNn2cnnc2S)cc1 [YU145266] | 45.7% | – | – | 44.07% | 45.11% | 1.04% | – | –
31 | COc1ccc2c(CCN)c[nH]c2c1.Cl [YU145407] | 43% | – | – | 8.55% | 6.76% | −1.79% | – | –
32 | Cc1ccsc1CNn1cnnc1S [YU145432] | 33.3% | – | – | 46.83% | 48.50% | 1.67% | – | –
33 | O=C(O)c1cccc(NCc2ccncc2)c1 [YU145461] | 94.6% | – | – | 95.48% | 96.37% | 0.89% | – | –
34 | Cc1ccc(C)n1NC(=O)c1ccc(O)cc1 [YU145520] | 36.9% | 3.79 | 1.80 | – | – | – | – | –
35 | N#Cc1c(O)nc(S)nc1-c1ccccc1 [YU145521] | 68.2% | – | – | 9.91% | 6.99% | −2.92% | – | –
36 | c1ccc2c(NCc3ccncc3)cccc2c1 [YU145649] | 87.7% | – | – | 87.87% | 89.97% | 2.10% | – | –
37 | Cc1cc(C)nc(N(C#N)C(=S)N(C)C)n1 [YU145653] | – | – | – | 27.17% | 18.58% | −8.59% | – | –
38 | CCCN1CCN(C(=O)c2ccncc2)CC1 [YU145702] | 35.9% | – | – | 45.86% | 44.33% | −1.53% | – | –
39 | CC(C)n1c(-c2ccccc2F)n[nH]c1=S [YU145747] | 31.3% | – | – | 31.49% | 36.22% | 4.74% | – | –
40 | CC(O)Cc1nnc(S)n1-c1ccccc1 (stereo not drawn) [YU145796] | 34.8% | – | – | 40.83% | 33.04% | −7.79% | – | –
